Experiment [1] has as its system cultured human mast cells (CHMC), IgE-induced degranulation. The experiment is described as follows: CHMC low cell density IgE activation: tryptase assay. Type of experiment: cell-based. The note with it: low cell density CHMC. Put shortly: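 Cord-blood CD34+-derived mucosal mast cells (SCF/IL-6 medium), 1000–1500 cells/well, preincubated with compound 1 h at 37°C, then anti-IgE stimulated 30 min at 37°C.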

The subject of experiment [2] is cultured human mast cells (CHMC), ionomycin-induced degranulation. Briefly: CHMC low cell density ionomycin activation: tryptase assay. The note with it: low cell density CHMC, read-out: LD Tryptase, CHMC, Iono, 3pt. The experiment is classed as cell-based.
[3] abbreviates: 3-point, read-out: LD Tryptase, CHMC, IgE, 3pt.
Where [4] appears, read: 8-point, read-out: LD Tryptase, CHMC, IgE, 8pt.
Setting [5] is: 3pt, read-out: LD Tryptase, CHMC, IgE, 3pt.
Setting [6] is: 8pt, read-out: LD Tryptase, CHMC, IgE, 8pt.
Setting [7] is: ionomycin activation (2 μM final), 3pt.
Setting [8] is: Homo sapiens, Mast cell, 8pt, read-out: LD Tryptase, CHMC, IgE, 8pt.
Setting [9] is: Homo sapiens, Mast cell, ionomycin activation (2 μM final), 3pt.

SMILES strings stand for the structures. pIC50: −log10 of the molar value. Counter-ions that a name gives are not always drawn. Like-named read-outs stand apart in the source and are kept apart here. A value given as a limit tells only on which side of the number the result lay.

For the compound `CCOC(=O)COc1c(C)cc(Nc2ncc(F)c(Nc3ccc4c(n3)NC(=O)C(C)(C)O4)n2)cc1Cl` [Compound 1042, N2-(3-Chloro-4-ethoxycarbonylmethyleneoxy-5-methylphenyl)-N4-(2,2-dimethyl-3-oxo-4H-5-pyrid[1,4]oxazin-6-yl)-5-fluoro-2,4-pyrimidinediamine], the pIC50 is < 5.00 in experiment [1] (setting [3]) and < 5.00 in experiment [2] (ionomycin activation, 3-point).

On to `Cc1cc(Nc2ncc(F)c(Nc3ccc4c(n3)NC(=O)C(C)(C)O4)n2)cc(Cl)c1OCC(=O)NCC(O)CO` (centres unmarked) [Compound 1043, N2-[3-Chloro-4-[N-(2,3-dihydroxypropyl)amino]carbonylmethyleneoxy-5-methylphenyl]-N4-(2,2-dimethyl-3-oxo-4H-5-pyrid[1,4]oxazin-6-yl)-5-fluoro-2,4-pyrimidinediamine], for which the pIC50 was > 5.00 in experiment [1] (setting [3]); > 5.00 in experiment [1] (setting [4]); < 5.00 in experiment [2] (ionomycin activation, 3-point).

As for `Cc1cc(Nc2ncc(F)c(Nc3ccc4c(n3)NC(=O)C(C)(C)O4)n2)cc(C)c1OCC(=O)NC1CCCC1` [Compound 1044, N2-[3,5-Dimethyl-4-(N-cyclopentylamino)carbonylmethyleneoxyphenyl]-N4-(2,2-dimethyl-3-oxo-4H-5-pyrid[1,4]oxazin-6-yl)-5-fluoro-2,4-pyrimidinediamine], the pIC50 is < 5.00 in experiment [1] (setting [3]); < 5.00 in experiment [1] (setting [4]); < 5.00 in experiment [2] (ionomycin activation, 3-point).

On to `CNC(=O)COc1cccc(Nc2ncc(F)c(Nc3ccc4c(c3)NC(=O)C(F)(F)O4)n2)c1` [Compound 1045, N4-(2,2-Difluoro-3-oxo-4H-benz[1,4]oxazin-6-yl)-5-fluoro-N2-[3-(N-methylamino)carbonylmethyleneoxyphenyl]-2,4-pyrimidinediamine Hydrogen Chloride Salt], for which the pIC50 in experiment [1] (setting [3]) was > 5.00; in experiment [1] (setting [4]) it was > 5.00; in experiment [2] (ionomycin activation, 3-point), < 5.00.

For `CNC(=O)COc1cccc(Nc2ncc(F)c(Nc3ccc4c(c3)NC(=O)C(F)(F)O4)n2)c1` [Compound 1046, N4-(2,2-Difluoro-3-oxo-4H-benz[1,4]oxazin-6-yl)-5-fluoro-N2-[3-(N-methylamino)carbonylmethyleneoxyphenyl]-2,4-pyrimidinediamine Methanesulfonic Acid Salt], the pIC50 is > 5.00 in experiment [1] (setting [3]); > 5.00 in experiment [1] (setting [4]); < 5.00 in experiment [2] (ionomycin activation, 3-point).

`CCn1ncc2ccc(Nc3ncc(F)c(Nc4ccc5c(n4)NC(=O)C(C)(C)O5)n3)cc21` [Compound 1049, N4-(2,2-Dimethyl-3-oxo-4H-5-pyrid[1,4]oxazin-6-yl)-N2-(1-ethylindazol-6-yl)-5-fluoro-2,4-pyrimidinediamine]: the pIC50 in experiment [1] (setting [3]) is > 5.00; in experiment [1] (setting [4]), > 5.00; in experiment [2] (ionomycin activation, 3-point), < 5.00.

For `CC(C)n1ncc2ccc(Nc3ncc(F)c(Nc4ccc5c(n4)NC(=O)C(C)(C)O5)n3)cc21` [Compound 1050, N4-(2,2-Dimethyl-3-oxo-4H-5-pyrid[1,4]oxazin-6-yl)-N2-(1-isopropylindazol-6-yl)-5-fluoro-2,4-pyrimidinediamine], the pIC50 in experiment [1] (setting [3]) was > 5.00; in experiment [1] (setting [4]) it was > 5.00; in experiment [2] (ionomycin activation, 3-point), < 5.00.

For `CC1(C)CNc2nc(Nc3nc(Cl)ncc3F)ccc2O1` [Compound 1051, 2-Chloro-N4-(3,4-dihydro-2,2-dimethyl-4H-5-pyrid[1,4]oxazin-6-yl)-5-fluoro-4-pyrimidinea mine], the pIC50 was < 5.00 in experiment [1] (setting [3]) and < 5.00 in experiment [2] (ionomycin activation, 3-point).

Turning to `Cn1ncc2ccc(Nc3ncc(F)c(Nc4ccc5c(n4)NCC(C)(C)O5)n3)cc21` [Compound 1052, N4-(3,4-Dihydro-2,2-dimethyl-4H-5-pyrid[1,4]oxazin-6-yl)-5-fluoro-N2-(1-methylindazol-6-yl)-2,4-pyrimidinediamine], the pIC50 was > 5.00 in experiment [1] (setting [3]); > 5.00 in experiment [1] (setting [4]); > 5.00 in experiment [2] (ionomycin activation, 3-point).

As for `CNC(=O)COc1cccc(Nc2ncc(F)c(Nc3ccc4c(n3)NCC(C)(C)O4)n2)c1` [Compound 1053, N4-(3,4-Dihydro-2,2-dimethyl-4H-5-pyrid[1,4]oxazin-6-yl)-5-fluoro-N2-[3-(N-methylamino)carbonylmethyleneoxyphenyl]-2,4-pyrimidinediamine], the pIC50 in experiment [1] (setting [3]) was > 5.00; in experiment [1] (setting [4]), > 5.00; in experiment [2] (ionomycin activation, 3-point), < 5.00.

As for `CNC(=O)c1ccc(Nc2ncc(F)c(Nc3ccc4c(n3)NC(=O)C(C)(C)O4)n2)cc1Cl` [Compound 1054, N2-[3-Chloro-4-(N-methylamino)carbonylphenyl]-N4-(2,2-dimethyl-3-oxo-4H-5-pyrid[1,4]oxazin-6-yl)-5-fluoro-2,4-pyrimidinediamine], the pIC50 in experiment [1] (setting [3]) is > 5.00; in experiment [1] (setting [4]), > 5.00; in experiment [2] (ionomycin activation, 3-point), < 5.00.

With `CC1(C)Oc2ccc(Nc3nc(Nc4ccc5c(c4)OCCO5)ncc3F)nc2NC1=O` [Compound 1055, N4-(2,2-Dimethyl-3-oxo-4H-5-pyrid[1,4]oxazin-6-yl)-N2-(3,4-ethylenedioxyphenyl)-5-fluoro-2,4-pyrimidinediamine], the pIC50 in experiment [1] (setting [3]) was > 5.00; in experiment [1] (setting [4]) it was > 5.00; in experiment [2] (ionomycin activation, 3-point), < 5.00.

For the compound `Cn1ncc2ccc(Nc3ncc(F)c(Nc4ccc5c(n4)NC(=O)C(C)(C)O5)n3)cc21` [Compound 1057, N4-(2,2-Dimethyl-3-oxo-4H-5-pyrid[1,4]oxazin-6-yl)-5-fluoro-N2-[1-methylindazol-6-yl]-2,4-pyrimidinediamine p-Toluenesulfonic Acid Salt], the pIC50 in experiment [1] (setting [3]) was > 5.00; in experiment [1] (setting [4]), > 5.00; in experiment [2] (ionomycin activation, 3-point), < 5.00.

Consider `C[C@@H]1Oc2ccc(Nc3nc(Nc4cc(C(C)(C)C)[nH]n4)ncc3F)nc2NC1=O` [Compound 1092, (S)—N2-(5-tert-Butyl-1H-pyrazol-3-yl)-5-fluoro-N4-(2-methyl-3-oxo-2H,4H-5-pyrid[1,4]oxazin-6-yl)-2,4-pyrimidinediamine], for which the pIC50 is > 5.00 in experiment [1] (setting [3]); > 5.00 in experiment [1] (setting [4]); < 5.00 in experiment [2] (ionomycin activation, 3-point).

As for `Fc1cnc(Cl)nc1Nc1ccc2c(n1)NCCO2` [Compound 1117, 2-Chloro-5-fluoro-N4-(3,4-dihydro-2H,4H-5-pyrid[1,4]oxazin-6-yl)-4-pyrimidineamine], the pIC50 in experiment [1] (setting [3]) was < 5.00; in experiment [2] (ionomycin activation, 3-point), < 5.00.

Turning to `Fc1cnc(Nc2ccc(N3CCOCC3)cc2)nc1Nc1ccc2c(n1)NCCO2` [Compound 1128, N4-(3,4-Dihydro-2H,4H-5-pyrid[1,4]oxazin-6-yl)-5-fluoro-N2-(4-morpholinophenyl)-2,4-pyrimidinediamine], the pIC50 in experiment [1] (setting [4]) is > 5.00; in experiment [2] (ionomycin activation, 3-point) it was < 5.00.

Regarding `CN1CCN(c2ccc(Nc3ncc(F)c(Nc4ccc5c(n4)NCCO5)n3)cc2)CC1` [Compound 1141, N4-(3,4-Dihydro-2H,4H-5-pyrid[1,4]oxazin-6-yl)-5-fluoro-N2-[4-(4-methylpiperazino)phenyl]-2,4-pyrimidinediamine], the pIC50 is > 5.00 in experiment [1] (setting [3]); > 5.00 in experiment [1] (setting [4]); < 5.00 in experiment [2] (ionomycin activation, 3-point).

Regarding `CN1CCN(c2cccc(Nc3ncc(F)c(Nc4ccc5c(n4)NCCO5)n3)c2)CC1` [Compound 1142, N4-(3,4-Dihydro-2H,4H-5-pyrid[1,4]oxazin-6-yl)-5-fluoro-N2-[3-(4-methylpiperazino)phenyl]-2,4-pyrimidinediamine], the pIC50 in experiment [1] (setting [5]) is > 5.00; in experiment [1] (setting [6]) it was > 5.00; in experiment [2] (setting [7]) it was < 5.00.

Consider `Fc1cnc(Nc2cccc(-c3ncco3)c2)nc1Nc1ccc2c(n1)NCCO2` [Compound 1143, N4-(3,4-Dihydro-2H,4H-5-pyrid[1,4]oxazin-6-yl)-5-fluoro-N2-[3-(oxazol-2-yl)phenyl]-2,4-pyrimidinediamine], for which the pIC50 was > 5.00 in experiment [1] (setting [5]), > 5.00 in experiment [1] (setting [6]) and < 5.00 in experiment [2] (setting [7]).

For the compound `COc1ccc(Nc2ncc(F)c(Nc3ccc4c(n3)NCCO4)n2)cc1Cl` [Compound 1146, N2-(3-Chloro-4-methoxyphenyl)-N4-(3,4-dihydro-2H,4H-5-pyrid[1,4]oxazin-6-yl)-5-fluoro-2,4-pyrimidinediamine], the values for the pIC50 in experiment [1] (setting [5]) and in experiment [2] (setting [7]) were > 5.00 and < 5.00, respectively.

`COC(=O)C=NC(=O)c1ccc(Nc2ncc(F)c(Nc3ccc4c(c3)NC(=O)[C@H](C)O4)n2)cc1` [Compound 1271, (S)-5-Fluoro-N2-[4-(N-methoxycarbonylmethyleneamino)carbonylphenyl]-N4-(2-methyl-3-oxo-2H,4H-benz[1,4]oxazin-6-yl)-2,4-pyrimidinediamine]: the pIC50 was > 5.00 in experiment [1] (setting [8]) and < 5.00 in experiment [2] (setting [9]).

Consider `COC(=O)C=NC(=O)c1ccc(Nc2ncc(F)c(Nc3ccc4c(c3)NC(=O)[C@@H](C)O4)n2)cc1` [Compound 1272, (R)-5-Fluoro-N2-[4-(N-methoxycarbonylmethyleneamino)carbonylphenyl]-N4-(2-methyl-3-oxo-2H,4H-benz[1,4]oxazin-6-yl)-2,4-pyrimidinediamine], for which the pIC50 is > 5.00 in experiment [1] (setting [8]) and < 5.00 in experiment [2] (setting [9]).

As to `CNC(=O)CNC(=O)c1ccc(Nc2ncc(F)c(Nc3ccc4c(c3)NC(=O)C(C)(C)O4)n2)cc1` [Compound 1295, N4-(2,2-Dimethyl-3-oxo-4H-benz[1,4]oxazin-6-yl)-5-fluaro-N2-[4-[N-(N-methylamino)carbonylmethylene]aminocarbonylphenyl]-2,4-pyrimidinediamine], the results for the pIC50 in experiment [1] (setting [5]), in experiment [1] (setting [6]) and in experiment [2] (setting [7]) were > 5.00, > 5.00 and < 5.00, respectively.

The values above are taken from patent US7560466B2, “Methods of treating or preventing autoimmune diseases with 2,4-pyrimidinediamine compounds” (Rigel Pharmaceuticals, Inc., priority 2003, dated 2009).
